# Results taken from ChEMBL document CHEMBL5055685, “Discovery of the First Potent IDO1/IDO2 Dual Inhibitors: A Promising Strategy for Cancer Immunotherapy” (J Med Chem, 2021).
# Active and inactive are the calls of the source. The rule behind the calls is not given here.
# Experiments:
# [1] = target: Insulin-like growth factor 1 receptor (Homo sapiens) (UniProt P08069); assay: Inhibition of IGF1R (unknown origin) at 1 uM
# [2] = target: Tyrosine-protein kinase Lyn (Homo sapiens) (UniProt P07948); assay: Inhibition of LYN (unknown origin) at 1 uM
# [3] = target: Dual specificity mitogen-activated protein kinase kinase 3 (Homo sapiens) (UniProt P46734); assay: Inhibition of MEK3 (unknown origin) at 1 uM
# [4] = target: Serine/threonine-protein kinase ULK3 (Homo sapiens) (UniProt Q6PHR2); assay: Inhibition of ULK3 (unknown origin) at 1 uM
# [5] = target: Tyrosine-protein kinase ITK/TSK (Homo sapiens) (UniProt Q08881); assay: Inhibition of ITK (unknown origin) at 1 uM
# [6] = target: Ephrin type-B receptor 2 (Homo sapiens) (UniProt P29323); assay: Inhibition of EPHB2 (unknown origin) at 1 uM
# [7] = target: Aurora kinase C (Homo sapiens) (UniProt Q9UQB9); assay: Inhibition of Aurora C (unknown origin) at 1 uM
# [8] = Cmax in Sprague-Dawley rat at 50 mg/kg, po; format: ADME, organism-based; parameters: dose 50 mg/kg, route po; conditions: in vivo
# [9] = target: Serine/threonine-protein kinase 32B (Homo sapiens) (UniProt Q9NY57); assay: Inhibition of STK32B (unknown origin) at 1 uM
# [10] = target: CDK17/Cyclin-Y (Homo sapiens) (UniProt Q00537+Q8ND76); assay: Inhibition of CDK17/cyclin-Y (unknown origin) at 1 uM; format: protein-complex assay
# Mus musculus = assay: In vivo inhibition of IDO1/IDO2 in BALB/c mouse xenografted with human HCT-116 cells assessed as increase in tryptophan level in serum by […]; format: functional, organism-based
# [11] = target: Serine/threonine-protein kinase PAK 5 (Homo sapiens) (UniProt Q9P286); assay: Inhibition of PAK5 (unknown origin) at 1 uM
# HCT-116 [12] = assay: Cytotoxicity against human HCT-116 cells assessed as reduction in cell viability by CCK8 assay; format: functional, cell-based
# [13] = target: 3-phosphoinositide-dependent protein kinase 1 (Homo sapiens) (UniProt O15530); assay: Inhibition of PDK1 (unknown origin) at 1 uM
# HCT-116 [14] = assay: Antitumor immunity in BALB/c mouse xenografted with human HCT-116 cells assessed as early Treg cells in spleen by propidium iodide staining based flow cytometry analysis (reference value: 9.33 %); format: functional
# [15] = target: Tyrosine-protein kinase JAK1 (Homo sapiens) (UniProt P23458); assay: Inhibition of JAK1 (unknown origin) at 1 uM
# [16] = Apparent permeability across apical to basolateral side in human Caco-2 cells assessed as drug recovery; format: ADME, cell-based; conditions: read-out: Drug recovery
# [17] = Half life in human liver microsomes; format: ADME, Microsome
# [18] = target: Serine/threonine-protein kinase OSR1 (Homo sapiens) (UniProt O95747); assay: Inhibition of OSR1 (unknown origin) at 1 uM
# [19] = target: Mitogen-activated protein kinase kinase kinase 8 (Homo sapiens) (UniProt P41279); assay: Inhibition of COT1 (unknown origin) at 1 uM
# [20] = target: Glycogen synthase kinase-3 beta (Homo sapiens) (UniProt P49841); assay: Inhibition of GSK3B (unknown origin) at 1 uM
# [21] = target: Serine/threonine-protein kinase MARK1 (Homo sapiens) (UniProt Q9P0L2); assay: Inhibition of MARK1 (unknown origin) at 1 uM
# [22] = target: Indoleamine 2,3-dioxygenase 1 (Mus musculus) (UniProt P28776); assay: In vivo inhibition of IDO1 in BALB/c mouse xenografted with human HCT-116 cells assessed as suppression of IDO1 expression in tumor by immunohistochemical assay; format: functional, organism-based
# [23] = target: cGMP-dependent protein kinase 1 (Homo sapiens) (UniProt Q13976); assay: Inhibition of PKG1alpha (unknown origin) at 1 uM
# [24] = target: Macrophage-stimulating protein receptor (Homo sapiens) (UniProt Q04912); assay: Inhibition of RON (unknown origin) at 1 uM
# Rattus norvegicus [25] = assay: Toxicity in rat assessed as rat death at […]; format: organism-based; conditions: in vivo
# [26] = target: Serine/threonine-protein kinase WNK2 (Homo sapiens) (UniProt Q9Y3S1); assay: Inhibition of WNK2 (unknown origin) at 1 uM
# [27] = target: Serine/threonine-protein kinase PLK3 (Homo sapiens) (UniProt Q9H4B4); assay: Inhibition of PLK3 (unknown origin) at 1 uM
# [28] = target: Mitogen-activated protein kinase 9 (Homo sapiens) (UniProt P45984); assay: Inhibition of JNK2 (unknown origin) at 1 uM
# [29] = target: Serine/threonine-protein kinase Nek1 (Homo sapiens) (UniProt Q96PY6); assay: Inhibition of NEK1 (unknown origin) at 1 uM
# Rattus norvegicus [30] = assay: Toxicity in rat assessed as weight loss at […]; format: organism-based; conditions: in vivo
# [31] = target: Serine/threonine-protein kinase Chk1 (Homo sapiens) (UniProt O14757); assay: Inhibition of CHK1 (unknown origin) at 1 uM
# [32] = target: CDK9/cyclin T1 (Homo sapiens) (UniProt O60563+P50750); assay: Inhibition of CDK9/cyclin-T1 (unknown origin) at 1 uM; format: protein-complex assay
# [33] = target: RAF proto-oncogene serine/threonine-protein kinase (Homo sapiens) (UniProt P04049); assay: Inhibition of RAF1 (unknown origin) at 1 uM
# [34] = target: Serine/threonine-protein kinase PAK 3 (Homo sapiens) (UniProt O75914); assay: Inhibition of PAK3 (unknown origin) at 1 uM
# [35] = target: MAP kinase-activated protein kinase 5 (Homo sapiens) (UniProt Q8IW41); assay: Inhibition of MAPKAPK5 (unknown origin) at 1 uM
# [36] = target: Tyrosine-protein kinase Lyn (Homo sapiens) (UniProt P07948); assay: Inhibition of LYN-B (unknown origin) at 1 uM
# [37] = target: Indoleamine 2,3-dioxygenase 1 (Homo sapiens, UniProt P14902); assay: Inhibition of IDO1 (unknown origin) assessed as reduction in kynurenine formation using L-tryptophan as substrate by methylene blue reagent based assay
# HCT-116 [38] = assay: Antitumor immunity in BALB/c mouse xenografted with human HCT-116 cells assessed as live Treg cells in tumor-draining lymph nodes by propidium iodide staining based flow cytometry analysis (reference value: 70.6 %); format: functional
# [39] = target: Tyrosine-protein kinase SYK (Homo sapiens) (UniProt P43405); assay: Inhibition of SYK (unknown origin) at 1 uM
# [40] = target: NUAK family SNF1-like kinase 2 (Homo sapiens) (UniProt Q9H093); assay: Inhibition of SNARK (unknown origin) at 1 uM
# [41] = Clearance in dog liver microsomes; format: ADME, Canis lupus familiaris, Microsome; conditions: read-out: CLH
# [42] = target: Ephrin type-B receptor 4 (Homo sapiens) (UniProt P54760); assay: Inhibition of EPHB4 (unknown origin) at 1 uM
# [43] = target: Serine/threonine-protein kinase 3 (Homo sapiens) (UniProt Q13188); assay: Inhibition of MST2 (unknown origin) at 1 uM
# [44] = Metabolic stability in rat liver microsomes assessed as rate constant; format: ADME, Microsome
# Tyrosine-protein kinase Lyn (Homo sapiens), sequence (P07948 2-512 limits assumed): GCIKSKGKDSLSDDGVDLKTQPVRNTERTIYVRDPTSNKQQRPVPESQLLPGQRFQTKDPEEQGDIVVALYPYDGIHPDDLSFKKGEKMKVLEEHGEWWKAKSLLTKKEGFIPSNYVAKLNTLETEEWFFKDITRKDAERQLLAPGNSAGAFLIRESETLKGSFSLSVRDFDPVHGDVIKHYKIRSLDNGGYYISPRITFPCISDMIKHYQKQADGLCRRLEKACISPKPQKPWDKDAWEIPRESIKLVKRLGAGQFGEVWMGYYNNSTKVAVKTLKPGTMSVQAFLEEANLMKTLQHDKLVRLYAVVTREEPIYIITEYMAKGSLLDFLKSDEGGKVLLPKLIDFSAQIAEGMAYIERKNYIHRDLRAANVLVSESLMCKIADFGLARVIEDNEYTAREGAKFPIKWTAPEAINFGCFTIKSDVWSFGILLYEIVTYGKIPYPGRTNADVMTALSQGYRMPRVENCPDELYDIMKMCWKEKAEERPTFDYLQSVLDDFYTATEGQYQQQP
# Serine/threonine-protein kinase OSR1 (Homo sapiens), sequence (O95747 whole entry, looked up): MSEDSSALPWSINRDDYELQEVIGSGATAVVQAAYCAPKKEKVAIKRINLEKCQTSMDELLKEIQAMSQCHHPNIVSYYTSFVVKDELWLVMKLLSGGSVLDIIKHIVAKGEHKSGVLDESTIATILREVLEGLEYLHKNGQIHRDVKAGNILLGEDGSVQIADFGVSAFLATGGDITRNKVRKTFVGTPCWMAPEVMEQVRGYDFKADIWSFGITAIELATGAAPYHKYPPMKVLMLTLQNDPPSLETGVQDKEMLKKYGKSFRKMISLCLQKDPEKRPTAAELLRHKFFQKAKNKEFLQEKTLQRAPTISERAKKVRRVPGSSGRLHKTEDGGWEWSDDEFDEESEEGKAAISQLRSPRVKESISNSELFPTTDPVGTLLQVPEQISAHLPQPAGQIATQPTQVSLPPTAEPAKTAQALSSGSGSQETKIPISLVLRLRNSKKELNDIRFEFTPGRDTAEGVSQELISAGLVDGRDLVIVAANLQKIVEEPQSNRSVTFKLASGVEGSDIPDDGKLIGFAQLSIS
# NUAK family SNF1-like kinase 2 (Homo sapiens), sequence (Q9H093 whole entry): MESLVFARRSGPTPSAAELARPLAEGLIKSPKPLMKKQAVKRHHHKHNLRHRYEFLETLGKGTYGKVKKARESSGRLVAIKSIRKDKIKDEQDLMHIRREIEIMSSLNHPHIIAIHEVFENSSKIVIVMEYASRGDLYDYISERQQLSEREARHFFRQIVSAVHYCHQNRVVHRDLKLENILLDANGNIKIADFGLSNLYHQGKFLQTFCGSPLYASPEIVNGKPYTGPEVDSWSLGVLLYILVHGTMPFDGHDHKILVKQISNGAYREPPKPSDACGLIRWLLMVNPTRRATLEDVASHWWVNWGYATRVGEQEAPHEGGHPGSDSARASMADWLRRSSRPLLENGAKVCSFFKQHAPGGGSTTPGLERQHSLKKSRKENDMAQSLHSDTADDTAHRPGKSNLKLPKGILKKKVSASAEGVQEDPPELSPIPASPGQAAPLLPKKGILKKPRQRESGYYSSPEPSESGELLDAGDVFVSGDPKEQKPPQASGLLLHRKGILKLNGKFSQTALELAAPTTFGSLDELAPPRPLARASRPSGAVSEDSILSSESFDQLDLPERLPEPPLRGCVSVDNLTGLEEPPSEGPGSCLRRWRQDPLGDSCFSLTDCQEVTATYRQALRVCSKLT
# Tyrosine-protein kinase JAK1 (Homo sapiens), sequence (P23458 whole entry): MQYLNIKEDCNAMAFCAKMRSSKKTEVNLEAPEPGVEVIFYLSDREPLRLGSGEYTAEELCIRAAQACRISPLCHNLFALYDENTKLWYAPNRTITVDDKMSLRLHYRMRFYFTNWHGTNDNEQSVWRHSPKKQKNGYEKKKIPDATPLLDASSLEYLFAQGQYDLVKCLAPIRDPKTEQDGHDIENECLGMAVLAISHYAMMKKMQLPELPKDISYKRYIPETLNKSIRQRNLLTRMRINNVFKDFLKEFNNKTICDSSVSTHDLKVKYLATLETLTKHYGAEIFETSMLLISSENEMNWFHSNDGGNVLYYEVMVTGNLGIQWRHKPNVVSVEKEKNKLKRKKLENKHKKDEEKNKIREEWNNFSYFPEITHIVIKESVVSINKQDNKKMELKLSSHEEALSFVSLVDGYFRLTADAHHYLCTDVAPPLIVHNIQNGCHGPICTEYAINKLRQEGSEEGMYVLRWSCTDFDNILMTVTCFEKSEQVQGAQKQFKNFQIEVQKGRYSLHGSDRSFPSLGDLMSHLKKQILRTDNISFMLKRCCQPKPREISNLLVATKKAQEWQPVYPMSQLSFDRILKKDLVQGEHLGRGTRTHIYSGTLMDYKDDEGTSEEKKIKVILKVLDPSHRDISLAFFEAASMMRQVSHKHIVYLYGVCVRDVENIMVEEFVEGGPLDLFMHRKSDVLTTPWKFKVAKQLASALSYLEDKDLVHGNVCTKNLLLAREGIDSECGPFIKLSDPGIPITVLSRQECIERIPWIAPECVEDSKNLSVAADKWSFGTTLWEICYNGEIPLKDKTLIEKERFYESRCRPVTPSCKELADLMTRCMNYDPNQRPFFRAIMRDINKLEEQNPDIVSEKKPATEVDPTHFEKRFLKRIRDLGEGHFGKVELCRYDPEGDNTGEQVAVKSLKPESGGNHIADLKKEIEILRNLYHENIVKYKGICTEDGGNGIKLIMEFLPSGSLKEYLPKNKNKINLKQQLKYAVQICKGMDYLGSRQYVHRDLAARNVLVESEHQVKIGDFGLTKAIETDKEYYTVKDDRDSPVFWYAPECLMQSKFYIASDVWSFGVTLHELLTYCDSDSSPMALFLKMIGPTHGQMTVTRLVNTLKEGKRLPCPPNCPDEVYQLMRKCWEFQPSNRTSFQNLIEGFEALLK
# Dual specificity mitogen-activated protein kinase kinase 3 (Homo sapiens), sequence (P46734 whole entry): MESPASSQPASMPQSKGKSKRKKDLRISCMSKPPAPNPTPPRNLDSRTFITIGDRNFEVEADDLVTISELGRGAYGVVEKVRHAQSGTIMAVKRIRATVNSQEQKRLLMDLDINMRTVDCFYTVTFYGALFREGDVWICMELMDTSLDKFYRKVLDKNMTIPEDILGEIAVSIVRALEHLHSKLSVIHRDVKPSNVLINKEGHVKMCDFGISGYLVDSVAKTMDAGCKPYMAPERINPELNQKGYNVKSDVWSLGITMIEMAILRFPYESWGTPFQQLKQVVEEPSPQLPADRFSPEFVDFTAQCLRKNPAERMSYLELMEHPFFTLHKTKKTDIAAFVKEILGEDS
# RAF proto-oncogene serine/threonine-protein kinase (Homo sapiens), sequence (P04049 whole entry): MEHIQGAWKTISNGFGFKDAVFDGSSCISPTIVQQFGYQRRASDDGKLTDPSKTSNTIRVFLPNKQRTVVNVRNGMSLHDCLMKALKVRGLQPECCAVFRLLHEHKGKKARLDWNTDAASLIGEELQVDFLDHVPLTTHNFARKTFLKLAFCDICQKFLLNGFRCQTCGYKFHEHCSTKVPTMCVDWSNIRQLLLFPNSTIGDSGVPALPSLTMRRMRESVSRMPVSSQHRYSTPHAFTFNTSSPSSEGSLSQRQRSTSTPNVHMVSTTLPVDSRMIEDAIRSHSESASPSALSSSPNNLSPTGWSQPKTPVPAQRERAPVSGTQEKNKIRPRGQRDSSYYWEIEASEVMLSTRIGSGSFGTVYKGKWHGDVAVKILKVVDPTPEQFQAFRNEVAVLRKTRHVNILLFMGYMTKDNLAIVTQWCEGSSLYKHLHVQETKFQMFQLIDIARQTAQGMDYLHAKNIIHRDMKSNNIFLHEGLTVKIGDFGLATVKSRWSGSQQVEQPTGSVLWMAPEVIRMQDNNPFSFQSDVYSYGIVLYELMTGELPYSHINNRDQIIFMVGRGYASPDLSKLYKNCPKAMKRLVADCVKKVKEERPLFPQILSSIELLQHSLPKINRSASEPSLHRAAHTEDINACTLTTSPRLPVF
# Serine/threonine-protein kinase ULK3 (Homo sapiens), sequence (Q6PHR2 whole entry): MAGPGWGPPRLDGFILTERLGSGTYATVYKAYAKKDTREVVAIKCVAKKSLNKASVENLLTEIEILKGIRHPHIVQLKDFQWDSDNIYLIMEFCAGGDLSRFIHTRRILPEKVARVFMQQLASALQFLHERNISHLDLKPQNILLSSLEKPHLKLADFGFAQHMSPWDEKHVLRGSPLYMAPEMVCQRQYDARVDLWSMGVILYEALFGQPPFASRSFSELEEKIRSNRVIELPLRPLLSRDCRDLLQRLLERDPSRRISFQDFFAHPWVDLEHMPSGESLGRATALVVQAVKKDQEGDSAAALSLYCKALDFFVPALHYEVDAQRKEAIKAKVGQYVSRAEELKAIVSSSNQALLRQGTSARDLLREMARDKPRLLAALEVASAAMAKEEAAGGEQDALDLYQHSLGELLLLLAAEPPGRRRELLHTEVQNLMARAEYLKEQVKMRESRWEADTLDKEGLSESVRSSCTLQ
# Aurora kinase C (Homo sapiens), sequence (Q9UQB9 whole entry): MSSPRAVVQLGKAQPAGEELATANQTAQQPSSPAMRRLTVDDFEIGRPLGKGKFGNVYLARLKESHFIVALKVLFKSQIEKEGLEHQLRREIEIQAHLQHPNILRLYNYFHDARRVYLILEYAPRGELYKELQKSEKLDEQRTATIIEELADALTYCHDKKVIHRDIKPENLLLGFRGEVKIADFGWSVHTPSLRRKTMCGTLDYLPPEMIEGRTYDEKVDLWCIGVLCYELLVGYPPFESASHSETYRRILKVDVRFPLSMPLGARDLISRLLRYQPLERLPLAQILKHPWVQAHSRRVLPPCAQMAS
# Indoleamine 2,3-dioxygenase 1, sequence (P14902 whole entry): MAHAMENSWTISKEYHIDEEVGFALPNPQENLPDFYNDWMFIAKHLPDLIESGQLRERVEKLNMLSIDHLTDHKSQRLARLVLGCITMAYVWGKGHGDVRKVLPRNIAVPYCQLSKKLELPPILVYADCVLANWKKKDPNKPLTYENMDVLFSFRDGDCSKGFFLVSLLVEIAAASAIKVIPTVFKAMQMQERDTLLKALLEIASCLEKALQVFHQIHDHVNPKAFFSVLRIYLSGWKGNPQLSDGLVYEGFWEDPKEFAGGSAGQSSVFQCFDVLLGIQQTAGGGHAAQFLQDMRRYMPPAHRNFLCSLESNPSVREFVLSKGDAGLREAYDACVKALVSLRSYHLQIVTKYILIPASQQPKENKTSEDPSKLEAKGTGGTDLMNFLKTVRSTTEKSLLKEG
smiles,measurement,setting,value
OCCOCc1cn(CCNc2nonc2/C(=N/O)Nc2ccc(F)c(Br)c2)nn1,inhibition,[1],inactive
same,inhibition,[2],inactive
same,inhibition,[3],inactive
same,inhibition,[4],inactive
same,inhibition,[5],inactive
same,inhibition,[6],inactive
same,inhibition,[7],inactive
same,Cmax,[8],1040 ng/mL
same,inhibition,[9],inactive
same,inhibition,[10],inactive
same,inhibition,Mus musculus,Active
same,inhibition,[11],inactive
same,IC50,HCT-116 [12],56.1 µM
same,inhibition,[13],inactive
same,Activity,HCT-116 [14],4.54%
same,inhibition,[15],inactive
same,recovery,[16],91.1%
same,half-life,[17],46.1 min
same,inhibition,[18],inactive
same,inhibition,[19],inactive
same,inhibition,[20],inactive
same,inhibition,[21],inactive
same,inhibition,[22],Active
same,inhibition,[23],inactive
same,inhibition,[24],inactive
same,Activity,Rattus norvegicus [25],Non-Toxic
same,inhibition,[26],inactive
same,inhibition,[27],inactive
same,inhibition,[28],inactive
same,inhibition,[29],inactive
same,Activity,Rattus norvegicus [30],Non-Toxic
same,inhibition,[31],inactive
same,inhibition,[32],inactive
same,inhibition,[33],inactive
same,inhibition,[34],inactive
same,inhibition,[35],inactive
same,inhibition,[36],inactive
same,IC50,[37],0.028 µM
same,Activity,HCT-116 [38],88.1%
same,inhibition,[39],inactive
same,inhibition,[40],inactive
same,microsomal CLint,[41],245 µL/min/mg
same,inhibition,[42],inactive
same,inhibition,[43],inactive
same,k el,[44],0.000545 s⁻¹
